Assays:
Assay in all cases: Glasshouse herbicide test, pre- and post-emergence, percentage damage
Assay type in all cases: in vivo
Avena fatua (AVEFA) = settings: 250 g/h, evaluated after 13 days, percentage damage on five point scale; for AVEFA POST: post-emergence; for AVEFA PRE: pre-emergence
Experimental: (§1) Seeds of a variety of test species are sown in standard soil in pots (Lolium perenne (LOLPE), Setaria faberi (SETFA), Alopecurus myosuroides (ALOMY), Echinochloa crus-galli (ECHCG), Avena fatua (AVEFA)). After cultivation for one day (pre-emergence) or after 8 days cultivation (post-emergence) under controlled conditions in a glasshouse (at 24/16° C., day/night; 14 hours light; 65% humidity), the plants are sprayed with an aqueous spray solution derived from the formulation of the technical active ingredient in acetone/water (50:50) solution containing 0.5% Tween 20 (polyoxyethelyene sorbitan monolaurate, CAS RN 9005-64-5). Compounds are applied at […]. The test plants are then grown in a glasshouse under controlled conditions in a glasshouse (at 24/16° C., day/night; 14 hours light; 65% humidity) and watered twice daily. After 13 days for pre and post-emergence, the test is evaluated for the percentage damage caused to the plant. The biological activities are shown in the following table on a five point scale (5=80-100%; 4=60-79%; 3=40-59%; 2=20-39%; 1=0-19%).

[1] = system: Alopecurus myosuroides (ALOMY); settings: 250 g/h, evaluated after 13 days, percentage damage on five point scale; for ALOMY POST: post-emergence; for ALOMY PRE: pre-emergence
Experimental: as §1

Lolium perenne (LOLPE) = settings: 250 g/h, evaluated after 13 days, percentage damage on five point scale; for LOLPE POST: post-emergence; for LOLPE PRE: pre-emergence
Experimental: as §1

Setaria faberi (SETFA) = settings: 250 g/h, evaluated after 13 days, percentage damage on five point scale; for SETFA POST: post-emergence; for SETFA PRE: pre-emergence
Experimental: as §1

[2] = system: Echinochloa crus-galli (ECHCG); settings: 250 g/h, evaluated after 13 days, percentage damage on five point scale; for ECHCG POST: post-emergence; for ECHCG PRE: pre-emergence
Experimental: as §1

Row | Structure (SMILES) | AVEFA POST (Avena fatua (AVEFA)) | AVEFA PRE (Avena fatua (AVEFA)) | ALOMY POST [1] | ALOMY PRE [1] | LOLPE POST (Lolium perenne (LOLPE)) | LOLPE PRE (Lolium perenne (LOLPE)) | SETFA POST (Setaria faberi (SETFA)) | SETFA PRE (Setaria faberi (SETFA)) | ECHCG POST [2] | ECHCG PRE [2]
1 | CC(=O)OC1=C(c2c(C)cc(-c3ccc(F)cc3)cc2C)C(=O)CC2(CCN(C(C)=O)CC2)C1 [Compound P1] | 5 (5=80-100%) | 5 (5=80-100%) | 5 (5=80-100%) | 5 (5=80-100%) | 5 (5=80-100%) | 5 (5=80-100%) | 5 (5=80-100%) | 5 (5=80-100%) | 5 (5=80-100%) | 5 (5=80-100%)
2 | COc1cc(-c2ccc(F)cc2)cc(C)c1C1C(=O)CC2(CCN(C(C)=O)CC2)CC1=O [Compound A21] | 5 (5=80-100%) | 5 (5=80-100%) | 5 (5=80-100%) | 5 (5=80-100%) | 5 (5=80-100%) | 5 (5=80-100%) | 5 (5=80-100%) | 5 (5=80-100%) | 5 (5=80-100%) | 5 (5=80-100%)
3 | Cc1cc(-c2ncc(F)cn2)cc(C)c1C1C(=O)CC2(CCN(C(=O)C3CC3)CC2)CC1=O [Compound A38] | 5 (5=80-100%) | 5 (5=80-100%) | 5 (5=80-100%) | 5 (5=80-100%) | 5 (5=80-100%) | 5 (5=80-100%) | 5 (5=80-100%) | 5 (5=80-100%) | 5 (5=80-100%) | 5 (5=80-100%)
4 | Cc1cc(-c2ccc(C#N)cn2)cc(C)c1C1C(=O)CC2(CCN(C(=O)c3ccccc3)CC2)CC1=O [Compound A23] | 5 (5=80-100%) | 5 (5=80-100%) | 5 (5=80-100%) | 5 (5=80-100%) | 5 (5=80-100%) | 5 (5=80-100%) | 5 (5=80-100%) | 5 (5=80-100%) | 5 (5=80-100%) | 5 (5=80-100%)
5 | COc1cc(-c2ncc(F)cn2)cc(C)c1C1C(=O)CC2(CCN(C(C)=O)CC2)CC1=O [Compound A17] | 5 (5=80-100%) | 5 (5=80-100%) | 5 (5=80-100%) | 5 (5=80-100%) | 5 (5=80-100%) | 5 (5=80-100%) | 5 (5=80-100%) | 5 (5=80-100%) | 5 (5=80-100%) | 5 (5=80-100%)
6 | Cc1cc(-c2ncc(F)cn2)cc(C)c1C1C(=O)CC2(CCN(C(=O)CC#N)CC2)CC1=O [Compound A43] | 5 (5=80-100%) | 5 (5=80-100%) | 5 (5=80-100%) | 5 (5=80-100%) | 5 (5=80-100%) | 5 (5=80-100%) | 5 (5=80-100%) | 5 (5=80-100%) | 5 (5=80-100%) | 5 (5=80-100%)
7 | Cc1cc(-c2ccc(F)cc2)cc(C)c1C1C(=O)CC2(CCN(C(=O)CC#N)CC2)CC1=O [Compound A63] | 5 (5=80-100%) | 5 (5=80-100%) |  | 5 (5=80-100%) | 5 (5=80-100%) | 5 (5=80-100%) | 5 (5=80-100%) | 5 (5=80-100%) | 4 (4=60-79%) | 5 (5=80-100%)
8 | Cc1cc(-c2ncc(F)cn2)cc(C)c1C1C(=O)CC2(CCN(C(=O)C(F)F)CC2)CC1=O [Compound A39] | 5 (5=80-100%) | 5 (5=80-100%) | 5 (5=80-100%) | 5 (5=80-100%) | 5 (5=80-100%) | 5 (5=80-100%) | 5 (5=80-100%) | 5 (5=80-100%) | 5 (5=80-100%) | 5 (5=80-100%)
9 | COc1cc(-c2ncc(F)cn2)cc(C)c1C1C(=O)CC2(CCN(OC)CC2)CC1=O [Compound A10] | 5 (5=80-100%) | 5 (5=80-100%) | 5 (5=80-100%) | 5 (5=80-100%) | 5 (5=80-100%) | 5 (5=80-100%) | 5 (5=80-100%) | 5 (5=80-100%) | 5 (5=80-100%) | 5 (5=80-100%)

Reference: patent publication US11980188B2, “Spiro cyclohexanedione derivates as herbicides” (SYNGENTA PARTICIPATIONS AG, priority 2018, dated 2024)
